How the values were obtained:
[1] = Maximum tolerated dose for a single intravenous injection; details: Swiss Nu/nu (nude), mouse, in vivo, Nude mice, survival and weight monitored up to day 21
Protocol: The iodomethylene-dimethyl-dihydropyranone (I), as obtained according to Example 1, was injected by the intravenous route (iv) to 4-5 week old Nude mice (Swiss Nu/nu) at the following doses: 50 mg/kg, 66.6 mg/kg, 100 mg/kg, 150 mg/kg and 200 mg/kg.

[2] = tested on: HCT 116 tumor transplanted under the skin; test: Antitumor activity in Nude mice carrying a transplanted HCT 116 tumor; assay type: in vivo
Protocol: This antitumor activity of the compounds of the invention was studied on transplanted tumors (such as HCT-116) in Nude mice (nu/nu mice). Nude mice are immunodeficient mice having no thymus.
The xenotransplantation of human tumor cells in Nude mice is a model commonly used for the evaluation of the antitumor activity of various molecules.
The iodomethylene-dimethyl-dihydropyranone (I) was injected 4 times at 3 day intervals (D0, D3, D6 and D9). Two groups of control animals were formed. The first group received no injection (control), whereas the animals of the second group received injections of the solution which served to solubilize the iodomethylene-dimethyl-dihydropyranone (I) (vehicle).
The volume of the tumors (mm^3) was measured with a caliper twice per week.

[3] = in vivo; details: Nude, mouse, iv
Protocol: Having determined the maximum tolerated dose for a single injection, the Nude mice were treated by the intravenous (iv) route with iodomethylene-dimethyl-dihydropyranone (I) injected at three different doses: 50, 70 and 90 mg/kg/injection. Each dose was administered 4 times at 3 day intervals (D0, D3, D6 and D9). The survival of the animals, their weight and clinical signs noted up to day 21 made it possible to establish the value of the maximum tolerated dose for four injections which is at less than 90 mg/kg. The 40, 60 and 80 mg/kg doses were therefore chosen for the evaluation of antitumor activity.

[4] = tested on: MCF7-MDR1 cells (mammary adenocarcinoma; resistance to doxorubicin); test: Study of the cell cycle by flow cytometry, MCF7-MDR1; assay type: cell-based; details: significant after 24 hours at 10^−7 M
Protocol: (§1) The biological activity of iodomethylene-dimethyl-dihydropyranone (I), as obtained according to Example 1, was studied in vitro on five different cell lines: • KB (epidermoid carcinoma of the nasopharynx) • HCT-116 (colorectal carcinoma) • K562 (myeloid leukemia) • K562-MDR1 (myeloid leukemia; resistance to doxorubicin) • MCF7-MDR1 (mammary adenocarcinoma; resistance to doxorubicin)
(§2) The cells selected for this study were incubated at 37° C. in the presence of iodomethylene-dimethyl-dihydropyranone (I) added to the culture medium at various concentrations. All the experiments carried out made it possible to determine the degree of toxicity of the test compound, its effect on the course of the cell cycle and its capacity to induce cell death by apoptosis.
(§3) This effect is significant after 24 hours of exposure of the cells to iodomethylene-dimethyl-dihydropyranone (I) used at the concentration 10^−7 M (cf. FIG. 4: effect of (I) on the cell cycle of the leukemia cells K562).

[5] = tested on: KB cells (epidermoid carcinoma of the nasopharynx); test: Study of cytotoxicity on KB cells; assay type: cell-based; details: Homo sapiens, 96 hours of incubation, 37° C., read-out: concentration which induces the death of 50% of the cells (IC50)
Protocol: as §1, §2
(§4) The cytotoxicity of iodomethylene-dimethyl-dihydropyranone (I) was evaluated on KB and HCT-116 cells.

[6] = tested on: K562 cells (myeloid leukemia); test: Study of the cell cycle by flow cytometry, K562; assay type: cell-based; details: significant after 24 hours at 10^−7 M
Protocol: as §1, §2, §3

[7] = tested on: HCT116 cells (colorectal carcinoma); test: Study of the cell cycle by flow cytometry, HCT116; assay type: cell-based, human; details: significant after 24 hours at 10^−7 M
Protocol: as §1, §2, §3

[8] = tested on: K562 cells (myeloid leukemia); test: Morphology of treated K562 cells; assay type: cell-based; details: 10^−7 M, 24 hours
Protocol: as §1, §2
It should also be emphasized that from 24 hours onwards after the treatment with iodomethylene-dimethyl-dihydropyranone (I) at the dose of 10^−7 M, a change is observed in the morphology of the treated cells.

[9] = tested on: K562-MDR1 cells (chemoresistant); test: Study of apoptosis, flow cytometry with annexin V / propidium iodide double labeling; assay type: cell-based; details: 24 hours, 10^−6 M and 10^−7 M
[10] = tested on: K562-MDR1 cells (myeloid leukemia; resistance to doxorubicin); test: Study of the cell cycle by flow cytometry, K562-MDR1; assay type: cell-based; details: significant after 24 hours at 10^−7 M
Protocol: as §1, §2, §3

[11] = tested on: HCT-116 cells (colorectal carcinoma); test: Study of cytotoxicity on HCT-116 cells; assay type: cell-based; details: Homo sapiens, 96 hours of incubation, 37° C., read-out: concentration which induces the death of 50% of the cells (IC50)
Protocol: as §1, §2, §4

## CC1(C)OC(=O)C=C/C1=C\I [E-5-iodomethylene-6,6-dimethyl-5,6-dihydropyran-2-one]
[1]
  MTD at 21 day: 100 mg/kg
[2]; 80 mg/kg/injection iv, D0, D3, D6, D9, from the 2nd injection
  tumor progression (tumor volume growth curves): significantly inhibits the tumor progression
[2]; 21 days after the start of the treatments, iv, 4 injections, dose not stated
  percentage T/C (median tumor volume treated/control ×100): 53.5%
[3]
  MTD at 21 day: < 90 mg/kg
[4]
  effect on the cell cycle: blocks cell division in all the lines at the G2/M phase
[5]
  IC50: ~450 nM
[6]
  effect on the cell cycle: blocks cell division in all the lines at the G2/M phase
[7]
  effect on the cell cycle: blocks cell division in all the lines at the G2/M phase
[8]
  change in the morphology of the treated cells: the cells lose their round forms and become fusiform
[9]
  induction of apoptosis (positive annexin V/negative PI cells): high induction of apoptosis
[10]
  effect on the cell cycle: blocks cell division in all the lines at the G2/M phase
[11]
  IC50: ~300 nM

From patent publication US7405309B2, “Pyranone derivatives useful for treating cancer” (Centre National de la Recherche Scientifique (CNRS), priority 2004, dated 2008)
